In US12201723B2, “Combined pharmaceutical formulation comprising gemcitabine-containing liposome composition and immune checkpoint inhibitor” (FUJIFILM Corporation, priority 2018, dated 2025):

Key:
[1] = test system: intratumoral immune cells (CD8-positive T cells, M1 and M2 macrophages) of EMT6 tumors; test: Changes in immune cell composition in tumor in tumor-bearing model mouse with subcutaneous transplantation of EMT6 (flow cytometry); assay type: in vivo; settings: tumors excised Days 16 and 17 after start; Gem 240 mg/kg or Lipo 4 mg/kg 3 times; CTLA-4 10 mg/kg or PBS 5 times
Source text: It is said that a high percentage of CD8-positive T cells in the tumor and a high ratio of M1 macrophages compared to M2 macrophages result in an antitumor environment (reference: J Clin Invest. 2012; 122(3); 787-95).
Tumors were excised on Days 16 and 17 after the start of administration and used for analysis of intratumoral immune cells.
The excised tumor was made into a cell-dispersed state using Tumor Dissociation Kit, mouse (catalog number 130-096-730, manufactured by Miltenyi Biotec GmbH), and intratumoral immune cells were isolated using CD45 (TIL) MicroBeads (catalog number 130-110-618, manufactured by Miltenyi Biotec GmbH). Dead cells were stained using LIVE/DEAD (trademark) Fixable Yellow Dead Cell Stain Kit (catalog number L34968, manufactured by Invitrogen Corporation), and various immune cell markers were stained using the following fluorescently labeled antibodies. […] The samples were analyzed using a flow cytometer (Attune NxT, manufactured by Invitrogen Corporation). CD8-positive T cells (CD3-positive, CD8-positive), M1 macrophages (CD11b-positive, F4/80-positive, MHC Class II-positive, CD206-negative), and M2 macrophages (CD11b-positive, F4/80-positive, MHC Class II-negative, CD206-positive) were identified, and the percentage of each cell group was calculated.

EMT6 tumor cells [2] = test: Drug efficacy test with combined use of PD-1 in tumor-bearing model mouse with subcutaneous transplantation of EMT6; assay type: in vivo
Source text: As the test substance, the same substance as in Example 1 was used.
Changes in tumor volume are shown in FIG. 12 (mean value) and FIGS. 13 to 20 (on the basis of an individual). […] In Table 5 and Table 6, “Number of test subjects in complete remission” means that the tumor volume was zero.

EMT6 tumor cells [3] = test: Drug efficacy test with combined use of anti-CTLA-4 antibody in tumor-bearing model mouse with subcutaneous transplantation of EMT6
Experimental: The anti-CTLA-4 antibody (hereinafter, also referred to as CTLA-4), Gem, and the liposome composition according to the embodiment of the present invention were used as test substances. […] The liposome composition according to the embodiment of the present invention was diluted with 5% Glu prior to use.
1.7×10^6 EMT6 cells, which are a mouse breast cancer cell line, were subcutaneously transplanted into the flank of female Balb/c mice to form subcutaneous tumors. Using the tumor volume as an index, inhibitory effects of combined administration of CTLA-4 and Gem and combined administration of CTLA-4 and the liposome composition according to the embodiment of the present invention on subcutaneous tumors were evaluated.
CTLA-4 and a solvent therefor (PBS) were intraperitoneally administered twice a week for a total of 3 weeks, and Gem, the liposome composition according to the embodiment of the present invention, and a solvent therefor (5% Glu) were administered once a week by tail vein administration for a total of 3 weeks.
After the 3-week administration was completed, the drug was discontinued, and the tumor volume measurement was continued for 4 weeks. Test subjects with a tumor volume of more than 10% of body weight were euthanized during the test, and drug efficacy analysis was carried out based on the survival rate (tumor-free survival %).
Group configuration was set to a combination of 5% Glu and PBS for Group 1, a combination of 5% Glu and CTLA-4 (10 mg/kg) for Group 2, a combination of Gem (240 mg/kg) and PBS for Group 3, a combination of Gem (240 mg/kg) and CTLA-4 (10 mg/kg) for Group 4, a combination of the liposome composition according to the embodiment of the present invention (1 mg/kg) and PBS for Group 5, a combination of the liposome composition according to the embodiment of the present invention (1 mg/kg) and CTLA-4 (10 mg/kg) for Group 6, a combination of the liposome composition according to the embodiment of the present invention (4 mg/kg) and PBS for Group 7, and a combination of the liposome composition according to the embodiment of the present invention (4 mg/kg) and CTLA-4 (10 mg/kg) for Group 8.
(§1) In addition, Lipo (1) and Lipo (4) mean that the liposome composition according to the embodiment of the present invention was administered to a subject at a dose of 1 mg/kg and a dose of 4 mg/kg, respectively.
The survival rate (tumor-free survival %) in a case where a test subject with a tumor volume of more than 10% of body weight was euthanized was calculated, and the results of a survival curve by the Kaplan-Meier method are shown in FIG. 29. […] As a statistical analysis of an effect of prolonging the survival time, a log-rank test was carried out, and a p value of less than 5% between the groups was determined to have a statistically significant difference. Graghpad Prism version 5.03 was used for the calculation of median survival calculated from the survival curve by Kaplan-Meier method and the statistical analysis.

EMT6 tumor cells [4] = test: Drug efficacy test with combined use of PD-L1 in tumor-bearing model mouse with subcutaneous transplantation of EMT6
Source text: An anti-PD-L1 antibody (hereinafter, also referred to as PD-L1), gemcitabine (hereinafter, also referred to as Gem), and gemcitabine-containing liposome composition (hereinafter, also referred to as liposome composition according to the embodiment of the present invention) were used as test substances. Gemcitabine hydrochloride (manufactured by Teva Pharmaceutical Industries Ltd.) dissolved in physiological saline was used as Gem. The liposome composition according to the embodiment of the present invention was diluted with a 5% glucose solution for injection (hereinafter, also referred to as 5% Glu; 0.05 g/mL) prior to use.
3×10^6 EMT6 cells, which are a mouse breast cancer cell line, were subcutaneously transplanted into the flank of female Balb mice to form subcutaneous tumors. Using the tumor volume as an index, inhibitory effects of combined administration of PD-L1 and Gem and combined administration of PD-L1 and the liposome composition according to the embodiment of the present invention on subcutaneous tumors were evaluated.
PD-L1 and an isotype control antibody thereof (hereinafter, also referred to as Iso antibody) were intraperitoneally administered twice a week for a total of 3 weeks, and Gem, the liposome composition according to the embodiment of the present invention, and a solvent therefor (5% Glu) were administered once a week by tail vein administration for a total of 3 weeks.
After the 3-week administration was completed, the drug was discontinued, and the tumor volume measurement was continued for 2 weeks. Test subjects with a tumor volume of more than 10% of body weight were euthanized during the test, and drug efficacy analysis was carried out based on the survival rate (tumor-free survival %).
Group configuration was set to a combination of 5% Glu and Iso antibody (10 mg/kg) for Group 1, a combination of 5% Glu and PD-L1 (10 mg/kg) for Group 2, a combination of Gem (240 mg/kg) and Iso antibody (10 mg/kg) for Group 3, a combination of Gem (240 mg/kg) and PD-L1 (10 mg/kg) for Group 4, a combination of the liposome composition according to the embodiment of the present invention (1 mg/kg) and Iso antibody (10 mg/kg) for Group 5, a combination of the liposome composition according to the embodiment of the present invention (1 mg/kg) and PD-L1 (10 mg/kg) for Group 6, a combination of the liposome composition according to the embodiment of the present invention (4 mg/kg) and Iso antibody (10 mg/kg) for Group 7, and a combination of the liposome composition according to the embodiment of the present invention (4 mg/kg) and PD-L1 (10 mg/kg) for Group 8.
as §1
As a statistical analysis of an effect of prolonging the survival time, a log-rank test was carried out, and a p value of less than 5% between the groups was determined to have a statistically significant difference.

[5] = Gem 240 mg/kg or Lipo 1 mg/kg, CTLA-4 10 mg/kg or PBS

## Nc1ccn([C@@H]2O[C@H](CO)[C@@H](O)C2(F)F)c(=O)n1 [Gem, (+)-2′-deoxy-2′,2′-difluorocytidine]
[1]
  percentage of CD8-positive T cells in the tumor (in words): not changed
EMT6 tumor cells [2]; Gem 240 mg/kg or Lipo 2 mg/kg, PD-1 10 mg/kg or PBS
  tumor growth inhibitory effect (in words): tumor growth could not be stopped
EMT6 tumor cells [2]; by day 41, Gem 240 mg/kg or Lipo 2 mg/kg, PD-1 10 mg/kg or PBS
  Complete remission rate (%): 0%
EMT6 tumor cells [2]; by post-transplantation day 41, 8 per group, Gem 240 mg/kg or Lipo 2 mg/kg once/3W tail, PD-1 10 mg/kg or PBS twice/3W i.p.
  Number of test subjects in complete remission: 0
EMT6 tumor cells [2]; day 6 after transplantation, Gem 240 mg/kg or Lipo 2 mg/kg, PD-1 10 mg/kg or PBS
  Tumor volume mean value (mm^3): 432 mm^3
EMT6 tumor cells [2]; day 9 after transplantation, Gem 240 mg/kg or Lipo 2 mg/kg, PD-1 10 mg/kg or PBS
  Tumor volume mean value (mm^3): 473 mm^3
EMT6 tumor cells [2]; day 13 after transplantation, Gem 240 mg/kg or Lipo 2 mg/kg, PD-1 10 mg/kg or PBS
  Tumor volume mean value (mm^3): 1129 mm^3
EMT6 tumor cells [2]; day 16 after transplantation, Gem 240 mg/kg or Lipo 2 mg/kg, PD-1 10 mg/kg or PBS
  Tumor volume mean value (mm^3): 1228 mm^3
EMT6 tumor cells [2]; day 20 after transplantation, Gem 240 mg/kg or Lipo 2 mg/kg, PD-1 10 mg/kg or PBS
  Tumor volume mean value (mm^3): 2265 mm^3
EMT6 tumor cells [2]; day 23 after transplantation, Gem 240 mg/kg or Lipo 2 mg/kg, PD-1 10 mg/kg or PBS
  Tumor volume mean value (mm^3): 3521 mm^3
EMT6 tumor cells [2]; post-transplantation day 41, Gem 240 mg/kg or Lipo 2 mg/kg, PD-1 10 mg/kg or PBS
  animals subjected to euthanasia by the day of test termination: all animals
EMT6 tumor cells [3]; [5]
  Median survival Percentage (control group / comparative group): 1.40
  tumor growth inhibitory effect (in words): tumor growth could not be stopped
EMT6 tumor cells [3]; Kaplan-Meier, euthanasia at tumor volume >10% of body weight, Gem 240 mg/kg or Lipo 1 mg/kg, CTLA-4 10 mg/kg or PBS
  Median survival: 29.5
EMT6 tumor cells [3]; by day 52, Gem 240 mg/kg or Lipo 1 mg/kg, CTLA-4 10 mg/kg or PBS
  Complete remission rate (%): 0%
EMT6 tumor cells [3]; by post-transplantation day 52, 8 per group, Gem 240 mg/kg or Lipo 1 mg/kg once/3W tail, CTLA-4 10 mg/kg or PBS twice/3W i.p.
  Number of test subjects in complete remission: 0
EMT6 tumor cells [3]; post-transplantation day 52, out of 8, Gem 240 mg/kg or Lipo 1 mg/kg, CTLA-4 10 mg/kg or PBS
  test subjects subjected to euthanasia by the day of test termination: All test subjects
EMT6 tumor cells [3]; single agents vs 5% Glu + PBS, combinations vs same drug + PBS, Gem 240 mg/kg or Lipo 1 mg/kg, CTLA-4 10 mg/kg
  Log-rank Test Determination: b (“b” indicates p<0.001)
EMT6 tumor cells [3]; single agents vs Group 1, combinations vs same drug + PBS, Gem 240 mg/kg or Lipo 1 mg/kg, CTLA-4 10 mg/kg
  effect of prolonging the survival time (in words): statistically significant effect
EMT6 tumor cells [4]; Gem 240 mg/kg or Lipo 1 mg/kg, PD-L1 or Iso antibody 10 mg/kg
  tumor growth inhibitory effect (in words): tumor growth could not be stopped
EMT6 tumor cells [4]; Kaplan-Meier, euthanasia at tumor volume >10% of body weight, Gem 240 mg/kg or Lipo 1 mg/kg, PD-L1 or Iso antibody 10 mg/kg
  Median survival: 20
EMT6 tumor cells [4]; by day 41, Gem 240 mg/kg or Lipo 1 mg/kg, PD-L1 or Iso antibody 10 mg/kg
  Complete remission rate (%): 0%
EMT6 tumor cells [4]; by post-transplantation day 41, 8 per group, Gem 240 mg/kg or Lipo 1 mg/kg once/3W tail, PD-L1 or Iso antibody 10 mg/kg twice/3W i.p.
  Number of test subjects in complete remission: 0
EMT6 tumor cells [4]; post-transplantation day 41, Gem 240 mg/kg or Lipo 1 mg/kg, PD-L1 or Iso antibody 10 mg/kg
  test subjects subjected to euthanasia by the day of test termination: all test subjects
EMT6 tumor cells [4]; single agents vs Group 1, combinations vs same drug + Iso antibody, Gem 240 mg/kg or Lipo 1 mg/kg, PD-L1 10 mg/kg
  effect of prolonging the survival time (in words): No significant prolongation
